What follows are molecules tested against Sodium channel protein type 10 subunit alpha (Homo sapiens, UniProt Q9Y5Y9) (assay: Inhibition of human Nav1.8 expressed in HEK cells applied electrical stimulus 10 Hz for 10 seconds measuring relaxation to the resting state followed by post stimulation by E-VIPR Assay).
Format: cell-based

Sequence of Sodium channel protein type 10 subunit alpha (Q9Y5Y9 whole entry): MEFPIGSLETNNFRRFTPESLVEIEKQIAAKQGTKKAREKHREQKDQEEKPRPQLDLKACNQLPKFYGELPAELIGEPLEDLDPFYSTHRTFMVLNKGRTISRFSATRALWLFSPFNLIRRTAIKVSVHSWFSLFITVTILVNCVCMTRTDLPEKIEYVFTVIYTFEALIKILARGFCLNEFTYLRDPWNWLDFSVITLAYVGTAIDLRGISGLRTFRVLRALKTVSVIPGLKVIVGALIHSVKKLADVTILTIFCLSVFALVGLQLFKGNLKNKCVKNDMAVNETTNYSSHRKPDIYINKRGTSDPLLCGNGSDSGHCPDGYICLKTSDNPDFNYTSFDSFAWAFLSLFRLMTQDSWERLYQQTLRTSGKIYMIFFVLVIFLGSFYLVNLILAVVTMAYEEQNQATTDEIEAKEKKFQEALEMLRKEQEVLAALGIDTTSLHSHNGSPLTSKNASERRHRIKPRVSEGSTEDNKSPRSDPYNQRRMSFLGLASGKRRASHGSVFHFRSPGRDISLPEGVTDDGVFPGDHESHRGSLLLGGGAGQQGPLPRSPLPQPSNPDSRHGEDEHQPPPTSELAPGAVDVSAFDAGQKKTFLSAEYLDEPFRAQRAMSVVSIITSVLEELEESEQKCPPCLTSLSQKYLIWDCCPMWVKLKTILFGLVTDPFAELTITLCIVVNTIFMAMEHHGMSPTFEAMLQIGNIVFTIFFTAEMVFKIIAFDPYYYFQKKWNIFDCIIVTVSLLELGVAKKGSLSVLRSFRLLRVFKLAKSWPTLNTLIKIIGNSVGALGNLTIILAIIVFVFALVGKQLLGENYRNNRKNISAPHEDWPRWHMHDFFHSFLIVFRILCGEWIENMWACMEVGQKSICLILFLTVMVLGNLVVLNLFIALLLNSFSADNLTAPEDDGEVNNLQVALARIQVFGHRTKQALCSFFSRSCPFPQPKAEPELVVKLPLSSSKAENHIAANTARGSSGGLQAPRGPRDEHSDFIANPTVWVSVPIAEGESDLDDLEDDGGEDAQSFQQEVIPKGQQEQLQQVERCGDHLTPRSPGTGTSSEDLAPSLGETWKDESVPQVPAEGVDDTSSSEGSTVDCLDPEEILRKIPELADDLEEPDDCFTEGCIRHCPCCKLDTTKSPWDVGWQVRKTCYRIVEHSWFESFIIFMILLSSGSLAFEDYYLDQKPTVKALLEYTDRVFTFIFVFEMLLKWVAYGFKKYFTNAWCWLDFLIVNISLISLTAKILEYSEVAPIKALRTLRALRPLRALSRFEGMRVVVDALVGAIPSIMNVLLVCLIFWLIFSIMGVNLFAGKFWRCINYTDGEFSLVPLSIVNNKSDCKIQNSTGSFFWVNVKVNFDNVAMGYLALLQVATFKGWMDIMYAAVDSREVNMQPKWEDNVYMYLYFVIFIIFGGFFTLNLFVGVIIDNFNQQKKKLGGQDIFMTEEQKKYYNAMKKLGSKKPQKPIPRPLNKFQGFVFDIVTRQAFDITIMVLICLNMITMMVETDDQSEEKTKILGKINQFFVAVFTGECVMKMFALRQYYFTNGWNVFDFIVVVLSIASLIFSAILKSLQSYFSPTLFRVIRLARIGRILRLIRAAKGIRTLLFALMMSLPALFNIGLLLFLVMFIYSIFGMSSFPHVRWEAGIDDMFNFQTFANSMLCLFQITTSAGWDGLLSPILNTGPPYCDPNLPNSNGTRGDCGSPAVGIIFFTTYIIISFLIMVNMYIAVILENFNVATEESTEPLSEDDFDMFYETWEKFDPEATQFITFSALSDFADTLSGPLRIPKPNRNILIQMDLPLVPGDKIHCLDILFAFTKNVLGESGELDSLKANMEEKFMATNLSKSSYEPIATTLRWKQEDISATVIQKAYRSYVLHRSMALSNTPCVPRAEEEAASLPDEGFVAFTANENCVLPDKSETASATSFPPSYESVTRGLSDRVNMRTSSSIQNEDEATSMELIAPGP

IC50 | Structure (SMILES)
1.3 nM | COc1c(Cl)cc(Oc2ccc(OC(F)(F)F)c(F)c2OC)c(C(=O)Nc2ccnc(C(N)=O)c2)c1F
1.4 nM | COc1c(Oc2cc(Cl)c(C)c(F)c2C(=O)Nc2ccnc(C(N)=O)c2)ccc(OC(F)(F)F)c1F
0.8 nM | COc1c(Oc2cc(C(F)(F)F)c(C)c(F)c2C(=O)Nc2ccnc(C(N)=O)c2)ccc(OC(F)(F)F)c1F
1.7 nM | COc1cc(Oc2ccc(OC(F)(F)F)c(F)c2OC)c(C(=O)Nc2ccnc(C(N)=O)c2)c(F)c1Cl
4 nM | COc1cc(OC(F)(F)F)ccc1Oc1ccc(C(F)(F)F)c(C)c1C(=O)Nc1ccnc(C(N)=O)c1
2 nM | COc1cc(OC(F)(F)F)ccc1Oc1ccc(C(F)(F)F)c(Br)c1C(=O)Nc1ccnc(C(N)=O)c1
2.3 nM | COc1c(Oc2ccc(Cl)c(F)c2C(=O)Nc2ccnc(C(N)=O)c2)ccc(OC(F)(F)F)c1F
3 nM | COc1c(Oc2ccc(C(F)(F)F)c(C)c2C(=O)Nc2ccnc(C(N)=O)c2)ccc(OC(F)(F)F)c1F
1.8 nM | COc1cc(OC(F)(F)F)ccc1Oc1cc(OC)c(C(F)(F)F)c(F)c1C(=O)Nc1ccnc(C(N)=O)c1
2 nM | COc1cc(OC(F)(F)F)ccc1Oc1ccc(C(F)(F)F)c(Cl)c1C(=O)Nc1ccnc(C(N)=O)c1
1.6 nM | COc1c(Oc2cc(C(F)(F)F)c(OC)c(F)c2C(=O)Nc2ccnc(C(N)=O)c2)ccc(OC(F)(F)F)c1F
0.4 nM | COc1cc(Oc2ccc(OC(F)(F)F)c(F)c2OC)c(C(=O)Nc2ccnc(C(N)=O)c2)c(F)c1C(F)(F)F

Reference: ChEMBL document CHEMBL4665909, “Carboxamides as Modulators of Sodium Channels” (ACS Med Chem Lett, 2020)
